pIC50: −log10 of the molar value. Activity calls are given as the source filed them. The calls are words filed in the database; no cut-off is given here.
Assays:
[1] = molecular target: Poly [ADP-ribose] polymerase 1 (Homo sapiens, UniProt P09874); experiment: Inhibition of PARP1 (unknown origin) incubated for 45 mins in presence of biotinylated-NAD+ by microplate reader analysis
[2] = molecular target: T1, Bromodomain-containing protein 4 (Homo sapiens, UniProt O60885); experiment: Inhibition of recombinant BRD4 (unknown origin) at 0.5 uM incubated for 120 mins by TR-FRET assay relative to control
[3] = molecular target: T1, Bromodomain-containing protein 4; experiment: Inhibition of recombinant BRD4 (unknown origin) incubated for 120 mins by TR-FRET assay
SW1990 [4] = experiment: Antiproliferative activity against human SW1990 cells assessed as reduction in cell viability after 4 days by MTT assay; assay type: functional, cell-based; settings: SW1990, 96 h
MDA-MB-231 = experiment: Antiproliferative activity against human MDA-MB-231 cells assessed as reduction in cell viability after 7 days; assay type: functional, cell-based; settings: MDA-MB-231, 168 h
SW1990 [5] = experiment: Induction of autophagy in human SW1990 cells assessed as reduction in p62 expression at 6 uM incubated for 4 days by immunofluorescence assay; assay type: functional, cell-based; settings: time 4.0 day
CFPAC-1 = experiment: Antiproliferative activity against human CFPAC-1 cells assessed as reduction in cell viability after 4 days by MTT assay; assay type: functional, cell-based; settings: CFPAC-1, 96 h
CAPAN-1 = experiment: Antiproliferative activity against human CAPAN-1 cells assessed as reduction in cell viability after 4 days by MTT assay; assay type: functional, cell-based; settings: CAPAN-1, 96 h
[6] = molecular target: T1, Bromodomain-containing protein 4; experiment: Inhibition of BRD4 expression in human SW1990 cells at 6 uM after 4 days by Western blot analysis; assay type: cell-based; settings: time 4.0 day
[7] = molecular target: T1, Bromodomain-containing protein 4; experiment: Inhibition of BRD4 expression in human SW1990 cells at 6 uM after 4 days by Q-PCR analysis; assay type: cell-based; settings: time 4.0 day
Mus musculus [8] = experiment: Toxicity in BALB/c mouse xenografted with human SW1990 cells assessed as effect on body weight at 45 mg/kg, ip administered for 28 consecutive days; assay type: organism-based; settings: in vivo, 672 h, time 28 day
Mus musculus [9] = experiment: Toxicity in BALB/c mouse xenografted with human SW1990 cells assessed as kidney damage at 45 mg/kg, ip administered for 28 consecutive days by H and E staining based […] microscopic analysis; assay type: organism-based; settings: in vivo, 672 h, time 28 day
Mus musculus [10] = experiment: Toxicity in BALB/c mouse xenografted with human SW1990 cells assessed as lung damage at 45 mg/kg, ip administered for 28 consecutive days by H and E staining based […] microscopic analysis; assay type: organism-based; settings: in vivo, 672 h, time 28 day
Mus musculus [11] = experiment: Toxicity in BALB/c mouse xenografted with human SW1990 cells assessed as spleen damage at 45 mg/kg, ip administered for 28 consecutive days by H and E staining based […] microscopic analysis; assay type: organism-based; settings: in vivo, 672 h, time 28 day
Mus musculus [12] = experiment: Toxicity in BALB/c mouse xenografted with human SW1990 cells assessed as liver damage at 45 mg/kg, ip administered for 28 consecutive days by H and E staining based […] microscopic analysis; assay type: organism-based; settings: in vivo, 672 h, time 28 day
Mus musculus [13] = experiment: Toxicity in BALB/c mouse xenografted with human SW1990 cells assessed as heart damage at 45 mg/kg, ip administered for 28 consecutive days by H and E staining based […] microscopic analysis; assay type: organism-based; settings: in vivo, 672 h, time 28 day
Mus musculus [14] = experiment: In vivo inhibition of PARP1 expression in human […] cells xenografted in BALB/c mouse at 45 mg/kg, ip administered for 28 consecutive days by immunohistochemical analysis; assay type: functional, organism-based; settings: time 28.0 day
Mus musculus [15] = experiment: In vivo inhibition of BRD4 expression in human […] cells xenografted in BALB/c mouse at 45 mg/kg, ip administered for 28 consecutive days by immunohistochemical analysis; assay type: functional, organism-based; settings: time 28.0 day
Mus musculus [16] = experiment: In vivo inhibition of PARP1 expression in human […] cells xenografted in BALB/c mouse at 45 mg/kg, ip administered for 28 consecutive days by Q-PCR analysis; assay type: functional, organism-based; settings: time 28.0 day
Mus musculus [17] = experiment: In vivo inhibition of BRD4 expression in human […] cells xenografted in BALB/c mouse at 45 mg/kg, ip administered for 28 consecutive days by Q-PCR analysis; assay type: functional, organism-based; settings: time 28.0 day
Mus musculus [18] = experiment: In vivo inhibition of PARP1 expression in human […] cells xenografted in BALB/c mouse at 45 mg/kg, ip administered for 28 consecutive days by Western blot analysis; assay type: functional, organism-based; settings: time 28.0 day
Mus musculus [19] = experiment: In vivo inhibition of BRD4 expression in human […] cells xenografted in BALB/c mouse at 45 mg/kg, ip administered for 28 consecutive days by Western blot analysis; assay type: functional, organism-based; settings: time 28.0 day
SW1990 [20] = experiment: Effect on cell cycle progression in human SW1990 cells assessed as reduction in CDK6 expression at 6 uM after 4 days by Western blot analysis; assay type: functional, cell-based; settings: time 4.0 day
SW1990 [21] = experiment: Effect on cell cycle progression in human SW1990 cells assessed as reduction in CDK6 expression at 6 uM after 4 days by Q-PCR analysis; assay type: functional, cell-based; settings: time 4.0 day
SW1990 [22] = experiment: Effect on cell cycle progression in human SW1990 cells assessed as reduction in CCND1 expression at 6 uM after 4 days by Western blot analysis; assay type: functional, cell-based; settings: time 4.0 day
SW1990 [23] = experiment: Effect on cell cycle progression in human SW1990 cells assessed as reduction in CCND1 expression at 6 uM after 4 days by Q-PCR analysis; assay type: functional, cell-based; settings: time 4.0 day
SW1990 [24] = experiment: Effect on cell cycle progression in human SW1990 cells assessed as reduction in PLK1 expression at 6 uM after 4 days by Western blot analysis; assay type: functional, cell-based; settings: time 4.0 day
SW1990 [25] = experiment: Effect on cell cycle progression in human SW1990 cells assessed as reduction in PLK1 expression at 6 uM after 4 days by Q-PCR analysis; assay type: functional, cell-based; settings: time 4.0 day
Mus musculus [26] = experiment: Effect on cell cycle progression in human SW1990 cells xenografted in BALB/c mouse assessed as reduction in CDK6 expression at 45 mg/kg, ip after 4 days by Western blot analysis; assay type: functional, organism-based; settings: time 4.0 day
Mus musculus [27] = experiment: Effect on cell cycle progression in human SW1990 cells xenografted in BALB/c mouse assessed as reduction in CDK6 expression at 45 mg/kg, ip after 4 days by Q-PCR analysis; assay type: functional, organism-based; settings: time 4.0 day
Mus musculus [28] = experiment: Effect on cell cycle progression in human SW1990 cells xenografted in BALB/c mouse assessed as reduction in CCND1 expression at 45 mg/kg, ip after 4 days by Western blot analysis; assay type: functional, organism-based; settings: time 4.0 day
Mus musculus [29] = experiment: Effect on cell cycle progression in human SW1990 cells xenografted in BALB/c mouse assessed as reduction in CCND1 expression at 45 mg/kg, ip after 4 days by Q-PCR analysis; assay type: functional, organism-based; settings: time 4.0 day
Mus musculus [30] = experiment: Effect on cell cycle progression in human SW1990 cells xenografted in BALB/c mouse assessed as reduction in PLK1 expression at 45 mg/kg, ip after 4 days by Western blot analysis; assay type: functional, organism-based; settings: time 4.0 day
Mus musculus [31] = experiment: Effect on cell cycle progression in human SW1990 cells xenografted in BALB/c mouse assessed as reduction in PLK1 expression at 45 mg/kg, ip after 4 days by Q-PCR analysis; assay type: functional, organism-based; settings: time 4.0 day
SW1990 [32] = experiment: Induction of DNA damage in human SW1990 cells assessed as tail DNA at 6 uM incubated for 4 days by comet assay; assay type: functional, cell-based; settings: time 4.0 day
SW1990 [33] = experiment: Induction of DNA damage in human SW1990 cells assessed as increase in gammaH2AX at 6 uM incubated for 4 days by immunofluorescence assay; assay type: functional, cell-based; settings: time 4.0 day
SW1990 [34] = experiment: Inhibition of homologous recombinant repair in human SW1990 cells assessed as reduction in FOXM1 expression at 6 uM after 4 days by Q-PCR analysis; assay type: functional, cell-based; settings: time 4.0 day
SW1990 [35] = experiment: Inhibition of homologous recombinant repair in human SW1990 cells assessed as reduction in BRCA1 expression at 6 uM after 4 days by Q-PCR analysis; assay type: functional, cell-based; settings: time 4.0 day
SW1990 [36] = experiment: Inhibition of homologous recombinant repair in human SW1990 cells assessed as reduction in BRCA1 expression at 6 uM after 4 days by Western blot analysis; assay type: functional, cell-based; settings: time 4.0 day
SW1990 [37] = experiment: Inhibition of homologous recombinant repair in human SW1990 cells assessed as reduction in Rad51 expression at 6 uM after 4 days by Q-PCR analysis; assay type: functional, cell-based; settings: time 4.0 day
SW1990 [38] = experiment: Inhibition of homologous recombinant repair in human SW1990 cells assessed as reduction in Rad51 expression at 6 uM after 4 days by Western blot analysis; assay type: functional, cell-based; settings: time 4.0 day
SW1990 [39] = experiment: Induction of autophagy in human SW1990 cells assessed as increase in LC3B expression at 6 uM incubated for 4 days by immunofluorescence assay; assay type: functional, cell-based; settings: time 4.0 day

Poly [ADP-ribose] polymerase 1, sequence (P09874 whole entry): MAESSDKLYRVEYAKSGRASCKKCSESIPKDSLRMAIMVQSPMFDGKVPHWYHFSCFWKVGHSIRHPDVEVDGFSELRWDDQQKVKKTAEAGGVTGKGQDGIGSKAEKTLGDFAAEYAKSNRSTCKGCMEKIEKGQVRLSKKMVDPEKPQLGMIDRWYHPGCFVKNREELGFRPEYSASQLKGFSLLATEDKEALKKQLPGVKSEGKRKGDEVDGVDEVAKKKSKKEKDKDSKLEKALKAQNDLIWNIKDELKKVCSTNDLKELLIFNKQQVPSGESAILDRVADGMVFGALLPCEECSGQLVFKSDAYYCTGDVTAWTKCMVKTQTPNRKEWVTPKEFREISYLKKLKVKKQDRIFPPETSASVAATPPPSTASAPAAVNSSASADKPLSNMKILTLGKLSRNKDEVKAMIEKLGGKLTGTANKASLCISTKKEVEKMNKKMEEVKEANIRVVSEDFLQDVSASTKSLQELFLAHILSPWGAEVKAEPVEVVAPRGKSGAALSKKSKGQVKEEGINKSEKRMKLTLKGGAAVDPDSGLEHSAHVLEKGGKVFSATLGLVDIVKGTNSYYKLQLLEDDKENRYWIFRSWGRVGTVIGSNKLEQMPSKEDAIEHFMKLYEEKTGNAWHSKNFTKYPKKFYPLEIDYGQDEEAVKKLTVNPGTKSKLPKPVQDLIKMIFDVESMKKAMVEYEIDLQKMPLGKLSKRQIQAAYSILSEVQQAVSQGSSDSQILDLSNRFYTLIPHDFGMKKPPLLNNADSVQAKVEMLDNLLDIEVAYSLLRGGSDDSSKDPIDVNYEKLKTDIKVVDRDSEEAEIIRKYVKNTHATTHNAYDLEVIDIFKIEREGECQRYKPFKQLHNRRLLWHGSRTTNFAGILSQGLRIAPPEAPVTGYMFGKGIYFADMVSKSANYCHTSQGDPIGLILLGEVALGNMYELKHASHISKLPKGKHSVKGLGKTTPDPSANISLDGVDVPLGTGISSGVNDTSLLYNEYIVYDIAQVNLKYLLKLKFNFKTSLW

SMILES: CC[C@@H]1C(=O)N(C)c2cnc(Nc3ccc(-c4nc5c(C(N)=O)cccc5[nH]4)cc3OC)nc2N1Cc1ccc(OC)cc1OC
- pIC50 [1]: 6.24
- inhibition [2]: 17%

SMILES: CC[C@@H]1C(=O)N(C)c2cnc(Nc3ccc(CC(=O)NCc4nc5c(C(N)=O)cccc5[nH]4)cc3OC)nc2N1C1CCCC1
- pIC50 [1]: 6.30
- pIC50 [3]: 6.56

SMILES: CC[C@@H]1C(=O)N(C)c2cnc(Nc3cccc(-c4nc5c(C(N)=O)cccc5[nH]4)c3)nc2N1C1CCCC1
- pIC50 [1]: 6.81
- pIC50 [3]: 6.16

SMILES: CC[C@@H]1C(=O)N(C)c2cnc(Nc3ccc(-c4nc5c(C(N)=O)cccc5[nH]4)cc3)nc2N1C1CCCC1
- pIC50 (SW1990 [4]): 5.55
- pIC50 [1]: 7.37
- pIC50 [3]: 6.07
- pIC50 (MDA-MB-231): 6.08

SMILES: CC[C@@H]1C(=O)N(C)c2cnc(Nc3ccc(C(=O)NCc4nc5c(C(N)=O)cccc5[nH]4)cc3OC)nc2N1C1CCCC1
- pIC50 [1]: 6.47
- pIC50 [3]: 6.43

SMILES: O=C(c1cc(Cc2n[nH]c(=O)c3ccccc23)ccc1F)N1CCN(C(=O)C2CC2)CC1 [OLAPARIB]
- Activity (SW1990 [5]): inactive
- pIC50 (CFPAC-1): 4.86
- pIC50 (CAPAN-1): 5.07
- pIC50 (SW1990 [4]): 5.24
- pIC50 (MDA-MB-231): 5.07
- inhibition [6]: inactive
- inhibition [7]: inactive
- Activity (Mus musculus [8]): Non-Toxic
- Activity (Mus musculus [9]): Non-Toxic
- Activity (Mus musculus [10]): Non-Toxic
- Activity (Mus musculus [11]): Non-Toxic
- Activity (Mus musculus [12]): Non-Toxic
- Activity (Mus musculus [13]): Non-Toxic
- Activity (Mus musculus [14]): inactive
- Activity (Mus musculus [15]): inactive
- Activity (Mus musculus [16]): inactive
- Activity (Mus musculus [17]): inactive
- Activity (Mus musculus [18]): inactive
- Activity (Mus musculus [19]): inactive
- Activity (SW1990 [20]): inactive
- Activity (SW1990 [21]): inactive
- Activity (SW1990 [22]): inactive
- Activity (SW1990 [23]): inactive
- Activity (SW1990 [24]): inactive
- Activity (SW1990 [25]): inactive
- Activity (Mus musculus [26]): inactive
- Activity (Mus musculus [27]): inactive
- Activity (Mus musculus [28]): inactive
- Activity (Mus musculus [29]): inactive
- Activity (Mus musculus [30]): inactive
- Activity (Mus musculus [31]): inactive
- Activity (SW1990 [32]): Active
- Activity (SW1990 [33]): inactive
- inhibition (SW1990 [34]): inactive
- inhibition (SW1990 [35]): inactive
- inhibition (SW1990 [36]): inactive
- inhibition (SW1990 [37]): inactive
- inhibition (SW1990 [38]): inactive
- Activity (SW1990 [39]): inactive

SMILES: CC[C@@H]1C(=O)N(C)c2cnc(Nc3ccc(-c4nc5c(C(N)=O)cccc5[nH]4)cc3OC)nc2N1Cc1ccc(C)s1
- pIC50 (SW1990 [4]): 5.43
- pIC50 [1]: 6.47
- inhibition [2]: 52%
- pIC50 (MDA-MB-231): 5.90

SMILES: CC[C@@H]1C(=O)N(C)c2cnc(Nc3ccc(-c4nc5c(C(N)=O)cccc5[nH]4)cc3OC)nc2N1Cc1cccc(C(F)(F)F)c1
- pIC50 [1]: 5.76
- inhibition [2]: 17%

SMILES: COc1cc(-c2nc3c(C(N)=O)cccc3[nH]2)ccc1Nc1ncc2c(n1)N(C1CCCC1)[C@H](C)C(=O)N2C
- pIC50 (SW1990 [4]): 5.79
- pIC50 [1]: 6.90
- pIC50 [3]: 6.60
- pIC50 (MDA-MB-231): 6.33

— ChEMBL document CHEMBL5053549, “Discovery of Potent and Novel Dual PARP/BRD4 Inhibitors for Efficient Treatment of Pancreatic Cancer” (J Med Chem, 2021)
